Tests used:
[1] = tested on: THP-1 differentiated into macrophages; experiment: Cytotoxicity / cell viability of differentiated THP-1 in the presence of E. coli (ATP assay); type: cell-based; settings: 2 h pre-treatment + 6 h E. coli
Protocol: Human THP-1 monocytes (ATCC® TIB-202TM) were maintained in THP-1 complete medium (THP-1 CCM) and cultured in a controlled atmosphere at 37 °C. Differentiation into macrophages was induced by incubation with phorbol myristate acetate (PMA) for 24 h. The culture medium was then replaced and the cells left with fresh medium for another 24 h before being exposed to the three functional ingredients, their MIX and the inflammatory stimulus, E. coli.
The cytotoxicity of the three functional ingredients and their MIX was evaluated on a THP-1 immune system model differentiated into macrophages. Based on the method of intake of the formulation, a digestion volume of 2 liters was considered in order to mimic as much as possible the physiological condition of the average volume of liquid contained in the stomach during the digestive process. Cytotoxicity was carried out by constructing a dose-response curve at increasing concentrations of the individual functional ingredients and the MIX in order to identify the maximum concentration usable for subsequent tests. The following concentrations were therefore tested on THP-1: from 50 µg/mL to 600 µg/mL for PEA, from 1.25 µg/mL to 15 µg/mL for DRY MARITIME PINE EXTRACT, from 6.25 µg/mL to 75 µg/mL for HEMP OIL and from 57.5 µg/mL to 690 µg/mL for the MIX. Based on the results of the dose-response curves, cell viability analysis was not performed at higher concentrations due to mortality caused by the mixture at the highest concentration tested. The concentrations used for subsequent experiments were selected in this concentration range. The three functional ingredients and the MIX were dissolved in THP-1 CCM in the absence of antibiotic and in the presence of 1.18 mg/mL of bile as surfactant. The suspensions were incubated under stirring overnight to increase the passage of the functional ingredients into solution and, the following day, the THP-1 cells were washed with Hank's Balanced Salt Solution (HBSS) and pre-treated for 2 h with the different concentrations of the individual functional ingredients and the MIX. At the end of this incubation, the pro-inflammatory stimulus E. coli (1 × 10^6 CFU/mL) was added to the treated cells for a further 6 h. Cells treated only with E. coli were used as a negative control, while cells treated with 10 µM staurosporine were used as a positive cell death control. At the end of the 8 h of treatment, cell viability was assessed by ATP assay (PerkinElmer) to avoid any possible interference from the bacteria present that may occur using other tests such as MTS.

[2] = tested on: transcription factor Nf-kB; experiment: Nuclear levels of transcription factor Nf-kB in T24 bladder urothelium cells exposed to THP-1 conditioned media; type: cell-based, human; settings: T24 cells 4 h
Protocol: (§1) Based on the results of the cytotoxicity experiments, the medium conditioned on THP-1 to be used to study the possible anti-inflammatory activity on the bladder urothelium was obtained by exposing for 2 h the differentiated THP-1 cells to the concentrations of the three functional ingredients and the MIX corresponding to 600, 400, 200, 100, 50 and 25 µg/mL for the MICRONIZED PEA, 15, 10, 5, 2.5, 1.25, 0.625 µg/mL for the DRY MARITIME PINE EXTRACT, 75, 50, 25, 12.5, 6.25, 3.125 µg/mL for HEMP OIL and 690, 460, 230, 115, 57.5 and 28.75 µg/mL for the MIX, respectively. At the end of this incubation, the cells were treated for a further 6 h with the inflammatory stimulus E. coli in the presence of the different treatments. Cells exposed only with the inflammatory stimulus in the absence of pre-treatment were used as a positive control of inflammation.
(§2) The specific anti-inflammatory activity on the bladder urothelium of the three functional ingredients and the MIX was evaluated on an in vitro bladder urothelium epithelium composed of the T24 cell line (ATCC HTB-4TM). T24 cells were exposed for 4 h to conditioned media obtained by treating THP-1 cells differentiated into macrophages with different concentrations of the functional ingredients and MIX, and in the presence of E. coli. At the end of treatment, T24 cells were detached with trypsin, centrifuged, and lysed by sonication in lysis buffer. The supernatant obtained following centrifugation at 10,000 g for 10 min at 4 °C was stored at -80 °C. An extended analysis of the impact of functional ingredients and MIX on inflammation was performed using an assay for the determination of the transcription factor Nf-kB (Abcam) and the evaluation of the expression of pro-inflammatory cytokines with an array of 23 human cytokines (Raybiotech), following the manufacturer's instructions. The cytokines interleukin 1β (IL-1β), interleukin 6 (IL-6), and interleukin 8 (IL-8) were quantified by ELISA assay.
(§3) The results are reported expressed as fold change, calculated as the ratio between the values obtained from the respective treatments on the control of inflammation. As such, the fold change is adimensional.

GRO alpha = experiment: Cytokine array (23 human cytokines) in T24 bladder urothelium cells exposed to THP-1 conditioned media: GRO alpha; type: cell-based; settings: T24 cells 4 h
Protocol: as §1, §2, §3

GRO a/b/g = experiment: Cytokine array (23 human cytokines) in T24 bladder urothelium cells exposed to THP-1 conditioned media: GRO a/b/g; type: cell-based; settings: T24 cells 4 h
Protocol: as §1, §2, §3

GM-CSF = experiment: Cytokine array (23 human cytokines) in T24 bladder urothelium cells exposed to THP-1 conditioned media: GM-CSF; type: cell-based; settings: T24 cells 4 h
Protocol: as §1, §2, §3

IL-6 = experiment: ELISA of IL-6 in T24 bladder urothelium cells exposed to THP-1 conditioned media; type: cell-based, human; settings: T24 cells 4 h
Protocol: as §1, §2, §3

IL-8 = experiment: ELISA of IL-8 in T24 bladder urothelium cells exposed to THP-1 conditioned media; type: cell-based, human; settings: T24 cells 4 h
Protocol: as §1, §2, §3

IL-1β = experiment: ELISA of IL-1β in T24 bladder urothelium cells exposed to THP-1 conditioned media; type: cell-based, human; settings: T24 cells 4 h
Protocol: as §1, §2, §3

[3] = Condition 1: MICRONIZED PEA 600, MARITIME PINE EXTRACT 15, HEMP OIL 75, MIX 690 µg/mL (1200, 30, 150, 1380 mg)
[4] = Condition 2: MICRONIZED PEA 400, MARITIME PINE EXTRACT 10, HEMP OIL 50, MIX 460 µg/mL (800, 20, 100, 920 mg)
[5] = Condition 3: MICRONIZED PEA 200, MARITIME PINE EXTRACT 5, HEMP OIL 25, MIX 230 µg/mL (400, 10, 50, 460 mg)
[6] = Condition 4: MICRONIZED PEA 100, MARITIME PINE EXTRACT 2.5, HEMP OIL 12.5, MIX 115 µg/mL (200, 5, 25, 230 mg)
[7] = Condition 5: MICRONIZED PEA 50, MARITIME PINE EXTRACT 1.25, HEMP OIL 6.25, MIX 57.5 µg/mL (100, 2.5, 12.5, 115 mg)
[8] = Condition 6: MICRONIZED PEA 25, MARITIME PINE EXTRACT 0.625, HEMP OIL 3.125, MIX 28.75 µg/mL (50, 1.25, 6.25, 57.5 mg)

CCCCCCCCCCCCCCCC(=O)NCCO [MICRONIZED PEA, palmitoylethanolamide]
Viability ([1]; MICRONIZED PEA 50 µg/mL (100 mg)): 73.2 ± 9.5% | Viability ([1]; MICRONIZED PEA 100 µg/mL (200 mg)): 106.5 ± 5.6% | Viability ([1]; MICRONIZED PEA 300 µg/mL (600 mg)): 86.5 ± 5.9% | Viability ([1]; MICRONIZED PEA 500 µg/mL (1000 mg)): 71.9 ± 1.3% | Viability ([1]; MICRONIZED PEA 600 µg/mL (1200 mg)): 73.9 ± 19.5% | Nf-kB (Fold change vs Control) Average [2, 3]: 2.89 Fold change | Nf-kB (Fold change vs Control) Average [2, 4]: 6.16 Fold change | Nf-kB (Fold change vs Control) Average [2, 5]: 0.12 Fold change | Nf-kB (Fold change vs Control) Average [2, 6]: 0.75 Fold change | Nf-kB (Fold change vs Control) Average [2, 7]: 0.57 Fold change | Nf-kB (Fold change vs Control) Average [2, 8]: 0.43 Fold change | Nf-kB levels (nuclear translocation) ([2]; result in words, over the concentrations tested): reduces the nuclear translocation of the transcription factor NF-κB starting from 25 µg/mL (50 mg) up to 200 µg/mL (400 mg) | GRO alpha (Fold change vs Control) Average (GRO alpha; [3]): 1.49 Fold change | GRO alpha (Fold change vs Control) Average (GRO alpha; [4]): 0.79 Fold change | GRO alpha (Fold change vs Control) Average (GRO alpha; [5]): 1.28 Fold change | GRO alpha (Fold change vs Control) Average (GRO alpha; [6]): 1.23 Fold change | GRO alpha (Fold change vs Control) Average (GRO alpha; [7]): 0.91 Fold change | GRO alpha (Fold change vs Control) Average (GRO alpha; [8]): 1.17 Fold change | GRO a/b/g (Fold change vs Control) Average (GRO a/b/g; [3]): 1.14 Fold change | GRO a/b/g (Fold change vs Control) Average (GRO a/b/g; [4]): 0.92 Fold change | GRO a/b/g (Fold change vs Control) Average (GRO a/b/g; [5]): 0.81 Fold change | GRO a/b/g (Fold change vs Control) Average (GRO a/b/g; [6]): 0.58 Fold change | GRO a/b/g (Fold change vs Control) Average (GRO a/b/g; [7]): 1 Fold change | GRO a/b/g (Fold change vs Control) Average (GRO a/b/g; [8]): 1.13 Fold change | GM-CSF fold change vs control (GM-CSF; [3]): 1.01 Fold change | GM-CSF fold change vs control (GM-CSF; [4]): 1.1 Fold change | GM-CSF fold change vs control (GM-CSF; [5]): 0.9 Fold change | GM-CSF fold change vs control (GM-CSF; [6]): 0.21 Fold change | GM-CSF fold change vs control (GM-CSF; [7]): 1.15 Fold change | GM-CSF fold change vs control (GM-CSF; [8]): 1.19 Fold change | IL-6 (Fold change vs Control) Average (IL-6; [3]): 0.48 Fold change | IL-6 (Fold change vs Control) Average (IL-6; [4]): 0.34 Fold change | IL-6 (Fold change vs Control) Average (IL-6; [5]): 0.34 Fold change | IL-6 (Fold change vs Control) Average (IL-6; [6]): 0.33 Fold change | IL-6 (Fold change vs Control) Average (IL-6; [7]): 0.38 Fold change | IL-6 (Fold change vs Control) Average (IL-6; [8]): 0.45 Fold change | IL-8 (Fold change vs Control) Average (IL-8; [3]): 0.55 Fold change | IL-8 (Fold change vs Control) Average (IL-8; [4]): 0.49 Fold change | IL-8 (Fold change vs Control) Average (IL-8; [5]): 0.51 Fold change | IL-8 (Fold change vs Control) Average (IL-8; [6]): 0.54 Fold change | IL-8 (Fold change vs Control) Average (IL-8; [7]): 0.68 Fold change | IL-8 (Fold change vs Control) Average (IL-8; [8]): 0.69 Fold change | IL-1β (Fold change vs Control) Average (IL-1β; [3]): 0.14 Fold change | IL-1β (Fold change vs Control) Average (IL-1β; [4]): 0.25 Fold change | IL-1β (Fold change vs Control) Average (IL-1β; [5]): 0.15 Fold change | IL-1β (Fold change vs Control) Average (IL-1β; [6]): 0.25 Fold change | IL-1β (Fold change vs Control) Average (IL-1β; [7]): 0.30 Fold change | IL-1β (Fold change vs Control) Average (IL-1β; [8]): 0.30 Fold change

— patent EP4353225A1, “NUTRACEUTICAL OR PHARMACEUTICAL COMPOSITION FOR THE TREATMENT OF PELVIC PAIN” (Erbozeta S.p.A., priority 2022, dated 2024)
